SMILES strings stand for the structures.

The test addresses mu opioid peptide (MOP) receptor (mouse brain) (Mus musculus, UniProt P42866).

Chain of mu opioid peptide (MOP) receptor (mouse brain) (P42866 whole entry): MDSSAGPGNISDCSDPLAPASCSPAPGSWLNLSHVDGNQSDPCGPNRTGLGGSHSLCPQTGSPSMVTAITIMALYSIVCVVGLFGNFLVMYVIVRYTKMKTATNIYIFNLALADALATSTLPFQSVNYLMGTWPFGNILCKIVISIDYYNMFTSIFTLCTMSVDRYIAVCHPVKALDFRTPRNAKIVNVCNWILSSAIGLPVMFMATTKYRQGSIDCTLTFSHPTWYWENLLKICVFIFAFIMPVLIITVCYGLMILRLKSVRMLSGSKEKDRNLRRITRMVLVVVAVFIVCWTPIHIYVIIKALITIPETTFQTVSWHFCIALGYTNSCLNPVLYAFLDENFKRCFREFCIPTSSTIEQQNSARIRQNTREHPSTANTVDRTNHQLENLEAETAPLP

In turn, `CCC(=O)C(CC(C)N(C)C)(c1ccccc1)c1ccccc1` (stereo not shown) [methadone] displayed a 50% inhibitory concentration (IC50) of 11.7 ± 1.2 nM.

One may read the IC50 as the concentration that gives 50% inhibition. A higher IC50 goes with weaker potency.

The record behind these values is paper PMC2952445 (The journal of pain : official journal of the American Pain …, 2009).
